Test results from patent US11806313B2, “Abiraterone acetate containing composition and application thereof” (Hunan Huize Biopharma S & T Co., Ltd, priority 2021, dated 2023).

Key:
[1] = cited from earlier work
[2] = cited from earlier work; remark: listed apart in the source
[3] = type: physicochemical
From the text: Therefore, the self-microemulsion system of the present invention can choose the mixture of glycerol monolinoleate (CC) and medium chain triglyceride (MCT) as the oil phase. […] Accordingly, when glycerol monolinoleate and medium chain triglyceride are used in combination as the oil phase, in order to ensure a larger drug loading capacity, the amount of CC in the oil phase should be as much as possible, while the amount of MCT should be as little as possible.
When PEG-40 hydrogenated castor oil (RH40) and 2-(2-ethoxyethoxy)ethanol (HP) are used in combination as the emulsion phase, in order to ensure the emulsification effect of the self-microemulsion system and to ensure a large drug loading capacity, one should increase the amount of RH40 in the emulsion phase while also reduce the amount of HP as much as possible.

[4] = high-fat diet (57% fat, 825 calories)
[5] = low-fat diet (7% fat, 300 calories)

- solubility in 2-(2-ethoxyethoxy)ethanol (HP) [3]: about 69.0 mg/g
- solubility in PEG-40 hydrogenated castor oil (RH40) [3]: about 24.7 mg/g
- solubility in glycerol monolinoleate (CC) [3]: about 62.9 mg/g
- solubility in medium chain triglyceride (MCT) [3]: about 28.4 mg/g
Structure (SMILES): CC(=O)O[C@H]1CC[C@@]2(C)C(=CC[C@@H]3[C@@H]2CC[C@]2(C)C(c4cccnc4)=CC[C@@H]32)C1 [abiraterone acetate, (3β)-17-(3-pyridyl)androsta-5,16-dien-3-yl acetate]
- solubility in water [1]: less than 0.01 mg/ml
- increase of AUC0-∞ with food [2, 4]: ~10 times
- increase of Cmax with food [2, 4]: about 17 times
- increase of AUC0-∞ of abiraterone with food [2, 5]: ~5 times
- increase of Cmax of abiraterone with food [2, 5]: about 7 times
